Results: US20230355558A1 (priority 2022, published 2023)
“Also recorded” adds a separate entry of the source.

Experiments:
[1] = Fibrin clot swelling at 3% loading, with and without plasmin; settings: for fibrin clot swelling in degrading medium prior to degradation: medium containing plasmin; for fibrin clot swelling in non-degrading medium: no plasmin
[2] = Qualitative test for relative solubility
[3] = test system: NDV (Newcastle disease virus) strain R2B
[4] = test system: Human neuroblastoma cell line Sh-Sy5y; experiment: Cellular toxicity assay (MTT assay), neurotoxicity; settings: Sh-Sy5y cells, 1 ug/mL, 24 hours
plasmin = plasmin (Homo sapiens, UniProt P00747); experiment: Fibrin clot degradation by plasmin (gravimetric, protease inhibition); assay type: biochemical; settings: for protease inhibition activity (inhibiting plasmin mediated degradation of fibrin clots): 0-1 mM in fibrin clots, plasmin in PBS buffer; for protease inhibition activity (inhibiting plasmin mediated degradation of fibrin clots) / resistance against fibrin clot degradation by plasmin: up to 48 hours; for resistance against fibrin clot degradation by plasmin: about 0.1 mM, triplicate; for plasmin-mediated degradation of fibrin clots at 3% loading: about 3% loading in fibrin clots; for protease inhibition activity compared with TA (conclusion): fibrin clot / plasmin system; for degradation of the clot: about 16 hours
plasmin, sequence (P00747 581-810): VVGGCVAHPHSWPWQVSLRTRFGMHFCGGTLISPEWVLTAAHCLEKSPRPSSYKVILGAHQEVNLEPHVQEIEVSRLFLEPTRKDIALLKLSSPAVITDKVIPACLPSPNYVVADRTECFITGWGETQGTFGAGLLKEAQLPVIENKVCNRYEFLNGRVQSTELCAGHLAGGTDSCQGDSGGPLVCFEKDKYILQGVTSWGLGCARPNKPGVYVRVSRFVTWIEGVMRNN
plasmin, sequence (P00747 97-580): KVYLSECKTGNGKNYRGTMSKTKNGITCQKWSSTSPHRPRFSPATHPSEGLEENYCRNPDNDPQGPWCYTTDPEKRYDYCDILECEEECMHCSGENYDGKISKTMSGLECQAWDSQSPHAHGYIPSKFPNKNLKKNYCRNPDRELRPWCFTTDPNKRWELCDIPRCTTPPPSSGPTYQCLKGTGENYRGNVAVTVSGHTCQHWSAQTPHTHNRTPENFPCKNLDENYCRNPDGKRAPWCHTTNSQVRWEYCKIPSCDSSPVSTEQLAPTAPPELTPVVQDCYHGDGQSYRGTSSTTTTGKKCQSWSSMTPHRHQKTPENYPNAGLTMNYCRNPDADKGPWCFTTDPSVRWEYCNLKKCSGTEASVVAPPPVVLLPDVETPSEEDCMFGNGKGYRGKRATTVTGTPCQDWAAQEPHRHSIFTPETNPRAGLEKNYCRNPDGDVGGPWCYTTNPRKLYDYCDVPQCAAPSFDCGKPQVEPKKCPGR

| Structure (SMILES) | fibrin clot swelling in degrading medium prior to degradation [1] | fibrin clot swelling in non-degrading medium [1] | water solubility [2] | solvent needed to dissolve in buffer relative to water ([2]; pH 7.4 100 mM phosphate buffer versus water) | solubility in methanol or propanol ([2]; room temperature) | antiviral activity versus virus control [3] | toxicity to cells treated with compound only [3] | cytotoxicity or neurotoxicity compared with TA [4] | protease inhibition activity (inhibiting plasmin mediated degradation of fibrin clots) (plasmin; pH 7.4, 37° C.) | resistance against fibrin clot degradation by plasmin (plasmin; pH 7.4, 37° C.) | plasmin-mediated degradation of fibrin clots at 3% loading (plasmin) | protease inhibition activity compared with TA (conclusion) (plasmin) | concentration at which efficacious against fibrin clot degradation (plasmin; plasmin, pH 7.4, 37° C.) [mM] | degradation of the clot (plasmin; 0.1 mM, plasmin, pH 7.4, 37° C.) [%] | degradation of the clot (plasmin; 1 mM, plasmin, pH 7.4, 37° C.) |
| --- | --- | --- | --- | --- | --- | --- | --- | --- | --- | --- | --- | --- | --- | --- | --- |
| NCC1CCC(C(=O)[O][Ca][O]C(=O)C2CCC(CN)CC2)CC1 (stereo not shown) [Ca-TA, Calcium bis-tranexamate] | more than 50% | more than 50% | water soluble | approximately four times as much solvent | not soluble to a significant degree | no significant difference between the virus control and treated | no toxicity was observed | comparable cytotoxicity or neurotoxicity results as that of TA | dose-dependent protease inhibition activity; also recorded: exhibit protease inhibition activity | effective resistance | inhibited plasmin-mediated degradation of the fibrin clots for a longer period | comparable to that of TA | ≤ 0.1 |  |  |
| COCC(=O)NCC1CCC(C(=O)O)CC1 (stereo not shown) [MTA, N-(methoxy-acetamido) tranexamic acid] |  |  | water soluble |  |  | no significant difference between the virus control and treated |  | reduced neurotoxicity than TA | exhibit protease inhibition activity |  |  | eliminates or significantly reduces protease inhibition activity; also recorded: reduced protease inhibition activity than TA |  | 100 | about 85.1+/−0.6% |
| NCC1CCC(C(=O)O)CC1 (stereo not shown) [TA, Tranexamic acid, reference compound] | degraded without swelling | did not swell |  |  |  | no significant difference between the virus control and treated |  |  |  | effective resistance | inhibited plasmin-mediated degradation of the fibrin clots for a longer period |  |  |  |  |
